Some targets named below: MYLK3 (human) (UniProt Q32MK0); AURKA (human) (UniProt O14965); ERBB4 (human) (UniProt Q15303); HIPK3 (human) (UniProt Q9H422); MAP3K11 (human) (UniProt Q16584); MAP3K9 (human) (UniProt P80192); MAPK10 (human) (UniProt P53779); MAPKAPK3 (human) (UniProt Q16644); MARK4 (human) (UniProt Q96L34); MYLK (human) (UniProt Q15746); NUAK1 (human) (UniProt O60285); RIPK2 (human) (UniProt O43353); TTK (human) (UniProt P33981); MTOR (human) (UniProt P42345).

For experiment [1], the system named is AKT1 (human), P31749 [S473D].
Sequence of AKT1 (human), P31749 [S473D] (P31749 whole entry S473D, looked up): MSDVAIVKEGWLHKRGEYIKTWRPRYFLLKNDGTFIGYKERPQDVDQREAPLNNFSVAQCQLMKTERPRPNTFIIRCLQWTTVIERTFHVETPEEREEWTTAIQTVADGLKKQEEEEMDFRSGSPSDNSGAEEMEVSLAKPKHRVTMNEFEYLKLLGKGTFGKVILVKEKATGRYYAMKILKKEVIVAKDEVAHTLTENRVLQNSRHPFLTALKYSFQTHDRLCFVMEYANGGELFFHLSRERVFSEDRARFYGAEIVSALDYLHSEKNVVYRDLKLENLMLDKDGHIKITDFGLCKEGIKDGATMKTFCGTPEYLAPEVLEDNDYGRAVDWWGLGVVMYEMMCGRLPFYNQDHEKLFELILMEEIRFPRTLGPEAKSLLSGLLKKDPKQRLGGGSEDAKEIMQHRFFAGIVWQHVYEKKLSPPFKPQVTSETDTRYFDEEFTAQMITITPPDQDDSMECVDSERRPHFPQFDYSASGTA
The next experiment addresses ABL1 (human) (UniProt P00519). As to the kind of experiment: KINOMEscan competition binding. The conditions noted are these: compound 10.0 µM.
The subject of experiment [2] is ABL1 (human), P00519 [F317I]. The experiment in a line: KINOMEscan competition binding. Conditions: compound 10.0 µM.
Experiment [3] concerns ABL1 (human), P00519 [F317L]. The experiment in a line: KINOMEscan competition binding. Conditions: compound 10.0 µM.
Experiment [4] has as its system ABL1 (human), P00519 [H396P]. The experiment in a line: KINOMEscan competition binding. Conditions: compound 10.0 µM.

The record followed here is the kinase profiling compilation of Christmann-Franck et al. (2016).

Sequence of MAP3K9 (human) (P80192 whole entry, looked up): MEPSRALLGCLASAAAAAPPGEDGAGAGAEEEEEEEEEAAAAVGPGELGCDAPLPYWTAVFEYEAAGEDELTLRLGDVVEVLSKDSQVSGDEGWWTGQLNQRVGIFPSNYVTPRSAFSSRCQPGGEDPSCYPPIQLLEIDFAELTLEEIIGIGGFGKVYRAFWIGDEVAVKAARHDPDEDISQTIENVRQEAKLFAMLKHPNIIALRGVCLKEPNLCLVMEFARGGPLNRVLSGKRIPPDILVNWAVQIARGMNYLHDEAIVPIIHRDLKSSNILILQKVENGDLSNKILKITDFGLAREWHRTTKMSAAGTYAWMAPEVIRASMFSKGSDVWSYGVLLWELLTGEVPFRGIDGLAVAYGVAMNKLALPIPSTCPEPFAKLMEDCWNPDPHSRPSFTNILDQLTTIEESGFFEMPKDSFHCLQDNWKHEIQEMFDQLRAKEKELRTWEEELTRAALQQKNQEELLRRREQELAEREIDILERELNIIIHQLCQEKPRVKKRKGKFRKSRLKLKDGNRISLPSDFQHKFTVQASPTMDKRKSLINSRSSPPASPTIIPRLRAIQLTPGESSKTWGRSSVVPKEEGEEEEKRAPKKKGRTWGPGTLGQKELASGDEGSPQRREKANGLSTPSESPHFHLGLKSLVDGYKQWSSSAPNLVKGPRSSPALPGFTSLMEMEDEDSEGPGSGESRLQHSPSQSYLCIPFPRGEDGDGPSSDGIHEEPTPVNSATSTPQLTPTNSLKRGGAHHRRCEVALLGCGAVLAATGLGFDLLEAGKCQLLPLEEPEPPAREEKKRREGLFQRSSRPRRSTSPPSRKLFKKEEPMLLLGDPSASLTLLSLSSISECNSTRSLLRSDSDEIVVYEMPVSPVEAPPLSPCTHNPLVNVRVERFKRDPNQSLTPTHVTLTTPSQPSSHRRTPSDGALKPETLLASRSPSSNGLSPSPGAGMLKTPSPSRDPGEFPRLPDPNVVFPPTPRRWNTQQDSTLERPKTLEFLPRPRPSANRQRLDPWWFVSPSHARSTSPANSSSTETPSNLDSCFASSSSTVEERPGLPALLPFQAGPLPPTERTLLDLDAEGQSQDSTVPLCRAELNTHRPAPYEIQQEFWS
Sequence of MAPK10 (human) (P53779 whole entry, looked up): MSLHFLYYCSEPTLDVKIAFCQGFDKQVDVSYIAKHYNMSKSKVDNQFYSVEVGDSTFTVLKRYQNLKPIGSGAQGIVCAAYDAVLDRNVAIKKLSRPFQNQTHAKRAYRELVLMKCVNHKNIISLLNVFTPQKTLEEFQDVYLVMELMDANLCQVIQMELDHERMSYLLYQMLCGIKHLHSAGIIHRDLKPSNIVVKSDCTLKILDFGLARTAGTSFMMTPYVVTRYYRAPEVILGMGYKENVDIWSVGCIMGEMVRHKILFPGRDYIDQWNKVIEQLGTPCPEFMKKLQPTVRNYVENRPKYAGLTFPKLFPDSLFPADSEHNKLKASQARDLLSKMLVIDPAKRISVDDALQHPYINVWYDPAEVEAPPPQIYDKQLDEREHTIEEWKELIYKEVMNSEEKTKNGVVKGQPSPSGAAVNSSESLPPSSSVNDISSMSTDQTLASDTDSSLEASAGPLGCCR
Sequence of TTK (human) (P33981 whole entry, looked up): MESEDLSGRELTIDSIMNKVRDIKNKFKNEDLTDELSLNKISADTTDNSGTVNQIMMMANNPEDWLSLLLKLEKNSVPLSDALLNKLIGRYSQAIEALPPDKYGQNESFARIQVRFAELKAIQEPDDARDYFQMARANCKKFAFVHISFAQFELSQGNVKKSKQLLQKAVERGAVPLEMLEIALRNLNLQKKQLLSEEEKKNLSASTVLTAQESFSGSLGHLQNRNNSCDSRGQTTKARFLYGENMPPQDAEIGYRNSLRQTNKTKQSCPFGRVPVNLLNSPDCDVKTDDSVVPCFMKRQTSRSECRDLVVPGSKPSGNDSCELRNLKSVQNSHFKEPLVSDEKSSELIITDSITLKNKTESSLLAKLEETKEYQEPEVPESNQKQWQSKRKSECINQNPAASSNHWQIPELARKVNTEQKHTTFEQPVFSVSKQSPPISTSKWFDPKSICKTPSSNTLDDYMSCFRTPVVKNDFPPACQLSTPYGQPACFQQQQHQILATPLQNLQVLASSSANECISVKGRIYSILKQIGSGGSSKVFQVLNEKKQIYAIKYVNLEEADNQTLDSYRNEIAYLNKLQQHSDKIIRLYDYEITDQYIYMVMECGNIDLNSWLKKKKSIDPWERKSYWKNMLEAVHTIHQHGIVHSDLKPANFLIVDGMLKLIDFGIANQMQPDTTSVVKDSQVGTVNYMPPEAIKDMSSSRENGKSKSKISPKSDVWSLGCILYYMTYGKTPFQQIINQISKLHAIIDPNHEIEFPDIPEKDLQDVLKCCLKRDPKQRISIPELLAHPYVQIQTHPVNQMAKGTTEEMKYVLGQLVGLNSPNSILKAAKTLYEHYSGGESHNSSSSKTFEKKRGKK
Sequence of MYLK (human) (Q15746 whole entry, looked up): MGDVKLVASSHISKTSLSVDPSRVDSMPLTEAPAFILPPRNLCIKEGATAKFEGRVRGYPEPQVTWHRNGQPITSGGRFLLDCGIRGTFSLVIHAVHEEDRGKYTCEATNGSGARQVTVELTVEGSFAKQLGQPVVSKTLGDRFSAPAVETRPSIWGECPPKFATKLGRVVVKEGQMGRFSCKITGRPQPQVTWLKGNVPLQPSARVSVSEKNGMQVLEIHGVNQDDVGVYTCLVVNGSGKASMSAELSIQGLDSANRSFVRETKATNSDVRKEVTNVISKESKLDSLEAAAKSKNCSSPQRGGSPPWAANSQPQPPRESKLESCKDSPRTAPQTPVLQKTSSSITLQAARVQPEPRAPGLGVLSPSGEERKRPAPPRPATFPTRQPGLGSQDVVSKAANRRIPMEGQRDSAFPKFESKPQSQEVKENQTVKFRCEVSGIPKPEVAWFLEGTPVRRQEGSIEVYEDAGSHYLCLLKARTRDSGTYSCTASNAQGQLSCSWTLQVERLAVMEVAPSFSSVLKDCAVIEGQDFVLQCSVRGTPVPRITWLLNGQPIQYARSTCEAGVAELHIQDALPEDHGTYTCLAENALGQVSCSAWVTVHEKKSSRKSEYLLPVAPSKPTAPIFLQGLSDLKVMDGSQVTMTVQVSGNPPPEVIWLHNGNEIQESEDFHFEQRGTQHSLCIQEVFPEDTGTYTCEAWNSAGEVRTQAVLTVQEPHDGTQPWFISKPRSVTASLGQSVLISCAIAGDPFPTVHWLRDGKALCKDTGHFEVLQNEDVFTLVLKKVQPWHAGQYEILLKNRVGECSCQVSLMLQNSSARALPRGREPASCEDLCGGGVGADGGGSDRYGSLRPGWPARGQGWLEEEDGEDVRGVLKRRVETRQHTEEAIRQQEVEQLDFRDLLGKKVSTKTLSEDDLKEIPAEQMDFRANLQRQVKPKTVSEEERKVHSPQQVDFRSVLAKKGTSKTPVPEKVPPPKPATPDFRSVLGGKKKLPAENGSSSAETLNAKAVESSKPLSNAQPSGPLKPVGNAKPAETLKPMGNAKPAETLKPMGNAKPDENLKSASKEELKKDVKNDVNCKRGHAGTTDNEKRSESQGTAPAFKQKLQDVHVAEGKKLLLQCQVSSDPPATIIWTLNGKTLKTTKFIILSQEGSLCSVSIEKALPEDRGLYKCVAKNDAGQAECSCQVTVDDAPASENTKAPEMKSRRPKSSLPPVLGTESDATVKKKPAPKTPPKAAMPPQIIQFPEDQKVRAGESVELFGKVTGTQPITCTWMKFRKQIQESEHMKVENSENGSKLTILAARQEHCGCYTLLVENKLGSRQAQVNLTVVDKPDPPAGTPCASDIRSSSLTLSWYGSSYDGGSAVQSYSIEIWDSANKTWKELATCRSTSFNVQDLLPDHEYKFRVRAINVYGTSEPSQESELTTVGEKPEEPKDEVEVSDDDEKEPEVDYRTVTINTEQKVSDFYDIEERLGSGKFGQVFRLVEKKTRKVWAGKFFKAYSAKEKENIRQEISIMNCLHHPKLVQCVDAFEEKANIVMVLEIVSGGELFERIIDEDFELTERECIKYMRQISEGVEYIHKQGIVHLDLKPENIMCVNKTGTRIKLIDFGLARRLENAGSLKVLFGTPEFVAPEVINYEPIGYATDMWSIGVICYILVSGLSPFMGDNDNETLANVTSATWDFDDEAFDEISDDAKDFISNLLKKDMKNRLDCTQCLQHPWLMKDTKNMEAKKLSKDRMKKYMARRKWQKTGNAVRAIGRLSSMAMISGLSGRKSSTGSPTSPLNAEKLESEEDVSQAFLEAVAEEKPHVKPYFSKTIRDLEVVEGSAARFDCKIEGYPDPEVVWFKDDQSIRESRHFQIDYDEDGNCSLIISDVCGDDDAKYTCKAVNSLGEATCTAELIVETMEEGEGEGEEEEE

Consider `COc1ccc(-c2ccc3c(N4CCOCC4)nc(N4C[C@@H](C)O[C@@H](C)C4)nc3n2)cc1CO`, for which the per cent of control is 82% at MYLK3 (human) (compound 1.0 µM) and 104% at MYLK3 (human) (compound 10.0 µM).

As to `CCC(=O)N1CCN(c2ccc(-n3c(=O)ccc4cnc5ccc(-c6cnc7ccccc7c6)cc5c43)cc2C(F)(F)F)CC1`, the per cent of control in experiment [1] (compound 1.0 µM) worked out at 94%; in experiment [1] (compound 10.0 µM), 71%; at AURKA (human) (compound 1.0 µM), 88%; at AURKA (human) (compound 10.0 µM), 68%; on ERBB4 (human) (compound 1.0 µM), 110%; on ERBB4 (human) (compound 10.0 µM) it was 111%. Also, the per cent of control at HIPK3 (human) (compound 1.0 µM) was found to be 107%; at HIPK3 (human) (compound 10.0 µM), 91%; at MAP3K11 (human) (compound 1.0 µM) it was 99%; at MAP3K11 (human) (compound 10.0 µM), 86%; at MAP3K9 (human) (compound 1.0 µM), 92%; at MAP3K9 (human) (compound 10.0 µM), 48%. Moreover, the per cent of control is 99% on MAPK10 (human) (compound 1.0 µM); 79% at MAPK10 (human) (compound 10.0 µM); 113% on MAPKAPK3 (human) (compound 1.0 µM); 105% at MAPKAPK3 (human) (compound 10.0 µM); 94% at MARK4 (human) (compound 1.0 µM); 97% at MARK4 (human) (compound 10.0 µM). The per cent of control at MYLK (human) (compound 1.0 µM) was determined as 94%; at MYLK (human) (compound 10.0 µM), 83%; on NUAK1 (human) (compound 1.0 µM) it was 101%; at NUAK1 (human) (compound 10.0 µM), 79%; at RIPK2 (human) (compound 10.0 µM), 64%; on TTK (human) (compound 1.0 µM), 79%. This compound showed a per cent of control on TTK (human) (compound 10.0 µM) of 71%. For the same compound, the kinase still bound, per cent of control on ABL1 (human) stood at 60%; in [2] it was 100%; in [3], 100%; in experiment [4], 68%.

For orientation: IC50 means the concentration at which inhibition is half-maximal. `COC(=O)Nc1ccc(-c2nc(N3CCOCC3)c3cnn(C4CCN(C(=O)OC)CC4)c3n2)cc1`: the per cent of control in experiment [1] (compound 1.0 µM) came out at 89%; in experiment [1] (compound 10.0 µM) it was 87%; at AURKA (human) (compound 1.0 µM), 90%; on AURKA (human) (compound 10.0 µM), 63%; at ERBB4 (human) (compound 1.0 µM) it was 91%; at ERBB4 (human) (compound 10.0 µM), 108%. In addition, the per cent of control at HIPK3 (human) (compound 1.0 µM) turned out to be 112%; on HIPK3 (human) (compound 10.0 µM), 85%; on MAP3K11 (human) (compound 1.0 µM), 92%; at MAP3K11 (human) (compound 10.0 µM), 106%; at MAP3K9 (human) (compound 1.0 µM), 95%; on MAP3K9 (human) (compound 10.0 µM) it was 109%. The per cent of control at MAPK10 (human) (compound 1.0 µM) was determined as 94%; on MAPK10 (human) (compound 10.0 µM), 106%; on MAPKAPK3 (human) (compound 1.0 µM), 109%; on MAPKAPK3 (human) (compound 10.0 µM) it was 101%; on MARK4 (human) (compound 1.0 µM), 91%; on MARK4 (human) (compound 10.0 µM), 109%. Besides, the per cent of control is 97% at MYLK (human) (compound 1.0 µM); 87% on MYLK (human) (compound 10.0 µM); 94% at NUAK1 (human) (compound 1.0 µM); 82% on NUAK1 (human) (compound 10.0 µM); 94% on RIPK2 (human) (compound 1.0 µM); 72% at RIPK2 (human) (compound 10.0 µM). Also, the per cent of control on TTK (human) (compound 1.0 µM) is 91%; on TTK (human) (compound 10.0 µM), 93%. The IC50 against MTOR (human) was 15.8 nM.
